Test: Partition coefficient (logD) (aqueous phase 0.1 N HCl)
Format: physicochemical
Conditions: 0.1 N HCl (aqueous phase); read-out: logD

SMILES | logD
COc1cc(Cc2cnc(N)nc2N)cc(OC)c1Br [BRODIMOPRIM] | 2.04
Nc1ccc(Cc2cnc(N)nc2N)cc1 | 0.26
COc1cc(Cc2cnc(N)nc2N)cc(OC)c1N(C)C [ADITOPRIM] | 1.51
COc1ccc(Cc2cnc(N)nc2N)cc1OC [DIAVERIDINE] | 1
COc1ccc(Cc2cnc(N)nc2N)cc1 | 1.34
COc1cc(Cc2cnc(N)nc2N)cc(OC)c1 | 1.6
COCCOc1c(OC)cc(Cc2cnc(N)nc2N)cc1OC [TETROXOPRIM] | -1.81
CCc1cc(Cc2cnc(N)nc2N)cc(CC)c1CC | 1.55
CCCCCCCCOc1cc(Cc2cnc(N)nc2N)ccc1OC | 2.55
Nc1ncc(Cc2ccc3c(c2)OCO3)c(N)n1 | 1.52
C=C(C)c1c(OC)cc(Cc2cnc(N)nc2N)cc1OC | 3.07
CCOc1cc(Cc2cnc(N)nc2N)cc(OCC)c1 | 2.52
COc1cc(Cc2cnc(N)nc2N)cc(OC)c1SC [METIOPRIM] | 1.6
COCCOc1cccc(Cc2cnc(N)nc2N)c1 | -1.33

Same assay, conditions: octanol/water

SMILES | logD
COCCOc1ccc(Cc2cnc(N)nc2N)cc1OCCOC | -1.89
